From publication PMC8847695 (Frontiers in Chemistry, 2022)

Experiments:
Assay type in all cases: binding
Settings in all cases: 1 = hit, 0 = no hit
[1] = biological target: T1, IDO1 (1-435) (Homo sapiens, UniProt P14902); experiment: STD-NMR fragment screening, IDO1
T1 construct: His-tag of pET15b with TEV site (thrombin site replaced) (cleaved yes); made in house; host or cells: E. coli Rosetta 2 (DE3) pLysS
Description: (§1) All fragments were stored at −20°C as solids in argon flushed glass bottles. For NMR screening, fragments were weighed and dissolved in DMSO-d6 to a stock concentration of 300 mM. Mother plates were prepared with a 100 mM concentration. From these plates, daughter plates were prepared with the fragments mixed in the plates to a concentration of 50 mM for each fragment. Daughter plates were opened a maximum of eight times. The plates were argon flushed and sealed with a HT121TS (HTA) and Foil Heat Seal (Biozym).
(§2) For long time measurements, like the protein ^1H NMR spectrum, the buffer exchange was performed twice to reduce residual buffer peaks. All experiments were performed on a Bruker Avance III HDX 700 instrument, equipped with a 5 mm Prodigy TCI cryo-probehead. For every protein, a standard ^1H NMR experiment with 1 k scans and water suppression through presaturation was performed. […] The on-resonance frequency, which was determined from the ^1H NMR spectra of the protein, was between 0.5 and 0.6 ppm; 40 ppm was used as the off-resonance frequency. For an interleaved acquisition of the on- and off-resonance, a pseudo-2D scheme was applied. The saturation was done by Gaussian pulses with a length of 50 ms and 60 dB of attenuation, with an interpulse delay of 1 ms leading to an excitation bandwidth of about 42 Hz. The screening was done with 16 scans of on- and off-resonance scans each, with a 3 s saturation time. The samples contained final concentrations of 20 µM protein, 10% (^V/V) DMSO-d6, and 1 mM of each of the two fragments. A ^1H-NMR experiment was performed for each compound to act as a reference spectrum in the STD experiments. All NMR experiments were carried out at 25°C.
(§3) Fifteen of these compounds contain the same halogen twice. No compound bears mixtures of different halogen atoms. Four proteins (AAK1, CAMK1G, IDO1, and DOT1L) were screened against this HEFLib using STD-NMR. A fragment was considered a hit if the peak intensity in the difference spectrum was three times higher than the local background noise. […] Chemical compatibility and peak complementarity were assured for these mixtures. Samples containing more than two fragments were avoided to minimize the possible target competition and to decrease the risk of fragment interactions. […] The ^1H reference NMR spectrum of the mixture is shown in red for comparison. […] As fragment mixtures can lead to competitive effects between their fragments, it is not advised to use the quantification of peak mixtures for hit ranking.

[2] = biological target: T2, CAMK1G (1-320) (Homo sapiens, UniProt Q96NX5); experiment: STD-NMR fragment screening, CAMK1G
T2 construct: made in house; host or cells: E. coli BL21 (DE3) pLysS
Description: as §1, §2, §3

[3] = biological target: AAK1 (121-471) (Homo sapiens, UniProt Q2M2I8); experiment: STD-NMR fragment screening, AAK1
Description: as §1, §2, §3

[4] = biological target: T3, DOT1L (1-416) (Homo sapiens, UniProt Q8TEK3); experiment: STD-NMR fragment screening, DOT1L
T3 construct: made in house; host or cells: E. coli BL21 (DE3) pLysS
Description: as §1, §2, §3

T2 sequence (Q96NX5 1-320): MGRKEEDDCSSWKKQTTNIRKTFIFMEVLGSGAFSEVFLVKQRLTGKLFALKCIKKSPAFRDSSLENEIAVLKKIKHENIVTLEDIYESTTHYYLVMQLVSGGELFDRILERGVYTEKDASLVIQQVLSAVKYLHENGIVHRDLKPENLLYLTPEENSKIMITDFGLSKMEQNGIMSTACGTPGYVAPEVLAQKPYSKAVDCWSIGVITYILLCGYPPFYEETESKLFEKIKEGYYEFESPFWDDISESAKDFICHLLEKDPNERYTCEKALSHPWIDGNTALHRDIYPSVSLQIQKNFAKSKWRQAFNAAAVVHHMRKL
T1 sequence (P14902 whole entry, the tested form may be a part): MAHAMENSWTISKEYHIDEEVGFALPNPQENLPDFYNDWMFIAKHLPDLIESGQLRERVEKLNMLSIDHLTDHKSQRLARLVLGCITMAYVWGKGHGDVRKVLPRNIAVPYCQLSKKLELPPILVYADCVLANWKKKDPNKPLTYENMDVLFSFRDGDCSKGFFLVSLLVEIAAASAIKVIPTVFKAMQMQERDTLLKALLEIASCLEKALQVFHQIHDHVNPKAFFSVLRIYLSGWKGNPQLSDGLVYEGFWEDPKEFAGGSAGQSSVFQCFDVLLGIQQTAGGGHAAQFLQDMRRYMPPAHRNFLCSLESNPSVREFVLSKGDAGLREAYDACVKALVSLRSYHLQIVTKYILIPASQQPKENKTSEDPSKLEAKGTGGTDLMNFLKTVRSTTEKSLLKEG
Chain of AAK1 (121-471) (Q2M2I8 46-315 limits assumed): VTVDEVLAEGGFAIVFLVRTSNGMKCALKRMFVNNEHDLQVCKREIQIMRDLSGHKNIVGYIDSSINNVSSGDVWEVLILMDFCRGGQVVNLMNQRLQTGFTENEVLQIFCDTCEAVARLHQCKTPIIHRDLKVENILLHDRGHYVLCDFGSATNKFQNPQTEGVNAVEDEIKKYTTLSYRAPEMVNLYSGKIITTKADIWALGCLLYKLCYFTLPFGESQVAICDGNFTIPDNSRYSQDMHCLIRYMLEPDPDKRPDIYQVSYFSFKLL
T3 sequence (Q8TEK3 1-416): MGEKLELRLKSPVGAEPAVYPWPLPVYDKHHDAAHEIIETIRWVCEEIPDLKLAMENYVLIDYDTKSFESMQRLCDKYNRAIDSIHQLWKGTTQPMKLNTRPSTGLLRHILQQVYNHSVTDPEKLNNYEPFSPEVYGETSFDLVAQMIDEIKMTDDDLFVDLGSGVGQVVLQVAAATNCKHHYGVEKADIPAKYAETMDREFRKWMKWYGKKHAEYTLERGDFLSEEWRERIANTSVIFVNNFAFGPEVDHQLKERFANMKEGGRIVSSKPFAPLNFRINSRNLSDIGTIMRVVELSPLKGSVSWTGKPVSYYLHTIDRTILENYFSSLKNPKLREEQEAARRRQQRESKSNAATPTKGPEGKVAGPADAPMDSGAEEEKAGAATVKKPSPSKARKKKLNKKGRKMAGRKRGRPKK

SMILES	IDO1 (STD-NMR hit flag) [1]	CAMK1G (STD-NMR hit flag) [2]	AAK1 (STD-NMR hit flag) [3]	DOT1L (STD-NMR hit flag) [4]
Clc1cnc2nn[nH]c2c1 [Fragment B02290468]	0	0	0	0
Fc1ncccc1I [Fragment B02291262]	0	0	0	0
Cc1cnc(C)c(Cl)n1 [Fragment B02297402]	0	0	1	0
O=C1Nc2c(Cl)cccc2C1=O [Fragment B02290467]	0	0	0	0
Nc1ccc(Br)cn1 [Fragment B02291232]	0	0	1	0
O=C(O)c1ccncc1Br [Fragment B02297426]	0	0	0	0
COC(=O)c1cc(N)c(Cl)s1 [Fragment B02297407]	0	0	1	1
CC(=O)CS(=O)(=O)c1cc(Cl)ccc1F [Fragment B02297765]	0	0	0	0
NC1CCSc2ccc(Cl)cc21 (stereo not drawn) [Fragment B02291226]	0	0	0	0
Cn1c2nc(Cl)nc-2c(O)n(C)c1=O [Fragment B02291216]	1	1	1	0
O=C(O)c1cccnc1Cl [Fragment B02291258]	0	0	0	0
Nc1ncccc1I [Fragment B02289600]	0	1	0	0
CCn1ncc(Br)c1CNC [Fragment B02291155]	0	0	0	0
Cc1[nH]c(=O)[nH]c(=O)c1I [Fragment B02297420]	1	0	1	1
Cc1n[nH]c(C(=O)O)c1Br [Fragment B02294483]	0	0	1	0
Cc1ccc(C(=O)O)c(Cl)n1 [Fragment B02297428]	0	0	0	0
Clc1cnc2ccccn12 [Fragment B02294486]	1	1	1	0

SMILES	IDO1 (STD-NMR hit flag) [1]	CAMK1G (STD-NMR hit flag) [2]	AAK1 (STD-NMR hit flag) [3]	DOT1L (STD-NMR hit flag) [4]
Nc1ncc(Br)cc1C(=O)O [Fragment B02289612]	1	0	0	0
Brc1cccc2c1CNC2 [Fragment B02291212]	0	0	0	0
O=c1[nH]cc(Br)c(=O)[nH]1 [Fragment B02291248]	0	1	1	0
O=c1ncc(Cl)c[nH]1 [Fragment B02297425]	1	0	0	0
CS(=O)(=O)c1ccc(Cl)c(S(C)(=O)=O)c1 [Fragment B02291213]	0	0	0	0
CCC(N)c1ccc(Cl)cc1 (stereo not drawn) [Fragment B02291270]	1	1	1	1
CCn1ncc(Br)c1C(N)=O [Fragment B02291150]	0	1	1	0
Nc1ccc(Cl)c(C(=O)O)c1 [Fragment B02291260]	0	0	0	0
CC(C(=O)O)n1cc(Br)cn1 (stereo not drawn) [Fragment B02290114]	0	0	0	0
O=C(O)C(O)c1ccccc1Cl (stereo not drawn) [Fragment B02291247]	0	0	0	0
CN1CCN(c2ccc(Br)cn2)CC1 [Fragment B02297404]	0	0	0	0
Nc1ncc(C(=O)O)cc1Br [Fragment B02297655]	0	0	0	0
O=C(c1cc(Br)c[nH]1)N1CCOCC1 [Fragment B02290115]	0	1	0	0
Clc1cncc(-n2cccn2)n1 [Fragment B02291256]	0	1	1	0
O=C(O)c1ncccc1Br [Fragment B02289614]	0	0	0	0
Brc1cnn2cccnc12 [Fragment B02289610]	0	1	1	0
